Test results from patent publication EP0075167B1 (priority 1981, dated 1983).
Read-outs that look alike come from different tables or passages of the source.

Columns and labels:
Phytophthora infestans [1] = assay type: in vivo; details: systemic; preparation poured onto standard soil of young tomato plants; inoculated 3 days after treatment; 100% rel. humidity, ca. 20°C; evaluated 3 days after inoculation; compared with prior-art comparison substances
Phytophthora infestans [2] = assay type: in vivo; details: protective; young tomato plants sprayed to dripping wet, then inoculated with spore suspension; 100% rel. humidity, ca. 20°C; evaluated 3 days after inoculation; compared with prior-art comparison substances

| SMILES | Wirksamkeit (Phytophthora infestans [1]) | Wirksamkeit (Phytophthora infestans [2]) |
| --- | --- | --- |
| C=C(C)N(C(=O)COC)c1c(C)cccc1C [Beispiel 1, N-Me-^1 thoxyacetyl-N-(1-methylvinyl)-2,6-dimethylanilin] | deutliche Überlegenheit in der Wirksamkeit gegenüber dem Stand der Technik | deutliche Überlegenheit in der Wirksamkeit gegenüber dem Stand der Technik |
| C=C(C)N(C(=O)Cn1cncn1)c1c(C)cccc1C [Beispiel 8, N-(1-Methylvinyl)-N-(1,2,4-triazol-1-yl-acetyl)-2,6-dimethylanilin] | – | deutliche Überlegenheit in der Wirksamkeit gegenüber dem Stand der Technik |
| C#CCOCC(=O)N(C=C)c1c(C)cccc1C [Beispiel 9, N-Propargyloxyacetyl-N-vinyl-2,6-dimethylanilin] | deutliche Überlegenheit in der Wirksamkeit gegenüber dem Stand der Technik | – |
